Results from US6060608A, “Analogs of CC-1065 and the duocarmycins” (The Scripps Research Institute, priority 1999, dated 2000).
Where two headings read alike, the source gives them in different places.

What was measured:
[1] = Solvolysis regioselectivity (acid-catalyzed nucleophilic addition to the cyclopropane); format: physicochemical; conditions: C9 addition versus ring expansion
Description: Solvolysis: Reactivity. Two fundamental characteristics of the alkylation subunits have proven important in the studies to date. The first is the stereoelectronically-controlled acid-catalyzed ring-opening of the cyclopropane which dictates preferential addition of a nucleophile to the least substituted cyclopropane carbon. With the CBI series of modified alkylation subunits where this stereoelectronic alignment of the C8b-C9 bond is nearly optimized, exclusive (≥20:1) addition to the C9 center with cleavage of the C8b-C9 bond is observed. […] Thus, the impact of the difluorocyclopropane substitution on the reactivity and reaction regioselectivity of CBI was examined.
Solvolysis: Regioselectivity. Treatment of both 217 and 219 with catalytic CF3 SO3 H (0.1 equiv) in CH3 OH (0° C.) rapidly and cleanly provided a single characterizable product 225 (30 min, 90%) or 226 (10 min, 79%), FIG. 33. […] Furthermore, the ^1 H-^13 C HMBC NMR spectrum of 226 established the carbon-carbon connectivity of C1 (δ51.0) with the CF2 carbon (δ50.3, t) and C9b (δ125.0). No connectivity between the key CF2 carbon (δ50.3, t) and […] was detected as required of the ring expansion regioisomer. This was unambiguously established by conducting the solvolysis in THF-H2 O catalyzed by CF3 SO3 H (0.12 equiv) which cleanly provided 227 (18 h, 85%), FIG. 33. […]

[2] = Aqueous solvolysis reactivity followed by UV; format: physicochemical; conditions: for half-life: read-out: solvolysis half-life t1/2 (converted)
Method: The reactivity of 217-219 was assessed by following the solvolysis spectrophotometrically by UV at both pH 3 (50% CH3 OH-buffer, buffer=4:1:20 (v/v/v) 0.1 M citric acid, 0.2 M Na2 HPO4, H2 O) and pH 7 (1:1 H2 O--CH3 OH) measuring both the disappearance of the long-wavelength absorption band of the F2 CBI chromophore and the appearance of a short-wavelength absorption band attributable to the ring open products (FIG. 31).
Aqueous Solvolysis Reactivity. pH 3: N-BOC-CCBI (25, 100 μg) was dissolved in CH3 OH (1.5 mL) and mixed with pH 3 aqueous buffer (1.5 mL). The buffer contained 4:1:20 (v:v:v) 0.1 M citric acid, 0.2 M Na2 HPO4 and H2 O, respectively. The solvolysis solution was sealed and kept at 25° C. protected from light. The UV spectrum was measured at regular intervals every 2 h during the first day, every 12 h for another week, and every 24 h for an additional week. The decrease in the long-wavelength absorption at 322 nm and the increase in the short-wavelength absorption at 268 nm were monitored, FIG. 1.
pH 2: Samples of 25 (100 μg) and 26 (50 μg) were dissolved in CH3 OH (1.5 mL) and the solutions were mixed with aqueous buffer (pH 2.05, 1.5 mL). The buffer contained 4:1:20 (v:v:v) 1.0 M citric acid, 0.2 M Na2 HPO4, and H2 O, respectively. Immediately after mixing, the UV spectra of the solutions were measured against a reference solution containing CH3 OH (1.5 mL) and the aqueous buffer (1.5 mL) and these readings were used for the initial absorbance values. The solutions were stoppered, protected from the light, and allowed to stand at 25° C. UV spectra were recorded at regular intervals until constant values were obtained for the long and short wavelength absorbances. The solvolysis rate constants were determined from the slope of the lines obtained from linear least squares treatment of plots of ln[(Af -Ai)/(Af -A)] versus time using the short wavelength measurements for 25 and long wavelength measurements for 26).

[3] = pH 2 (buffer pH 2.05), CH3OH-buffer 1:1, 25° C.

For `CC(C)(C)OC(=O)N1CC2CC23C1=CC(=O)c1ccc(C#N)cc13` (centres unmarked) [compound 25, N-(tert-Butyloxycarbonyl)-7-cyano-1,2,9,9a-tetrahydrocyclopropa[c]benz[e]indol-4-one], the “solvolysis regioselectivity, addition to the least substituted or C9 cyclopropane carbon” value [1] was “nucleophilic addition to the least substituted carbon of the activated cyclopropane was observed exclusively”, the “first order solvolysis rate constant” value [2, 3] was 7.94e-06 s⁻¹ and the half-life [2, 3] was 24.2 h. For the same compound, the “solvolysis rate constant k” value ([2]; pH 3, 50% CH3OH-buffer) was 9.9e-07 s⁻¹ and the half-life ([2]; pH 3, 50% CH3OH-buffer) was 213 h.
